{
  "source": "patent US10307410B2",
  "about": "“Mcl-1 modulating compounds for cancer treatment” (CENTRE REGIONAL DE LUTTE CONTRE LE CANCER FRANCOIS BACLESSE, priority 2014, dated 2019)",
  "key": {"[1]": {"tested_on": "IGROV1-R10 ovarian cancer cells", "test": "DNA content histograms (sub-G1) by flow cytometry", "type": "cell-based", "method": "(§1) Exponentially growing cells were transfected by siRNA as described below, and after 48 h, cells were continuously exposed to (Het)aromatic oligosystems (10, 25 or 50 μM) dissolved in DMSO (<0.1% of total volume) for 4 to 24 supplementary hours.\nCells were seeded in 25 cm^2 flasks the day before to reach 30-50% confluency at the time of transfection. The transfection INTERFERin™ reagent (Polyplus Transfection, Strasbourg. France) was added to siRNA diluted in Opti-MEM® reduced serum medium (Invitrogen, Cergy-Pontoise, France) and complexes formation was allowed to proceed for 15 min at RT before being applied to cells. […]\n(§2) Adherent and floating cells were pooled, washed with 1×PBS and centrifuged at 200 g for 5 min before staining by Annexin V, propidium iodide or both, as recommended by the manufacturer (Roche Diagnostic, Indianapolis, USA). Briefly, 100 μl of Annexin V—Flit or propidium iodide or both were added on the cells pellet (10^6 cells) and incubated 15 minutes at room temperature in obscurity. 500 μl of sample buffer was then added on the suspensions that were thereafter analyzed using a Gallios flow cytometer (Beckman Coulter, Roissy, France) and cell cycle distribution was determined using Kaluza acquisition software (Beckman Coulter)."}, "[2]": {"tested_on": "IGROV1-R10 ovarian cancer cells", "test": "Annexin V/propidium iodide flow cytometry", "type": "cell-based", "conditions": "IGROV1-R10, 10 nM siXL1 48 h then 25 μM Pyridoclax 24 h", "method": "as §2"}, "[3]": {"tested_on": "SKOV3 chemoresistant ovarian cancer cells", "test": "Real-time cellular activity by impedancemetry (xCELLigence)", "type": "cell-based, human", "conditions": "SKOV3, 25 μM Pyridoclax + 5 μM ABT-737", "method": "FIG. 4 represents the effect of the association of Pyridoclax with ABT-737 on chemoresistant ovarian cancer cells IGROV1-R10 (top) and SKOV3 (bottom). Cells were concomitantly (A, E) or sequentially (B) exposed to 25 μM Pyridoclax and 5 μM ABT-737, and cellular effects were assessed either longitudinally (A, B, E) or after 24 h (C, D, F). [A, B, E] real time cellular activity assessed by impedancmetry (xCELLigence technology), after concomitant exposure (A, E) or sequential exposure (B; 24 h Pyridoclax, then ABT-737). [C]: Cellular morphology and DNA content histograms after a 24 h concomitant exposure. [D and F]: PARP and caspase 3 cleavage after a 24 h concomitant exposure.\nCompound-mediated cytotoxicity was monitored using Real-Time Cell Analyzer multi-plate (RTCA MP) Instrument, xCELLigence System (Roche Applied Science, Mannheim, Germany). This system monitors cellular events in real time measuring electrical impedance across interdigitated micro-electrodes integrated on the bottom of tissue culture E-plates View (Roche). […] Thus, this index reflects changes in cell viability as described by Ke et al. (2011, Methods Mol Biol 740, 33-43). […] Impedance was continuously measured until the end of the treatment. Standard deviations of well replicates were analyzed with the RTCA Software."}, "[4]": {"tested_on": "IGROV1-R10 ovarian cancer cells", "test": "Trypan blue exclusion assay", "type": "cell-based", "conditions": "IGROV1-R10, Pyridoclax associated to siXL1"}, "[5]": {"tested_on": "IGROV1-R10 ovarian cancer cells", "test": "Nuclear morphology after DAPI staining", "type": "cell-based", "design": "key to Apoptotic nuclear features: +: a few condensed or fragmented nuclei are observable after DAPI staining; ++: numerous condensed or fragmented nuclei are observable after DAPI staining (20-50%); +++: most of the nuclei are condensed or fragmented", "method": "as §1\nCells were seeded in 25 cm^2 flasks the day before to reach 30-50% confluency at the time of transfection. The transfection INTERFERin™ reagent (Polyplus Transfection, Strasbourg. France) was added to siRNA diluted in Opti-MEM® reduced serum medium (Invitrogen, Cergy-Pontoise, France) and complexes formation was allowed to proceed for 15 min at RT before being applied to cells. The final siRNA concentration in the flasks was 20 nM.\nAfter treatment, both detached and adherent cells were pooled after trypsinization, applied to a polylysine-coated glass slide by cytocentrifugation and fixed with a solution of ethanol/chloroform/acetic acid (6:3:1). The preparations were then incubated for 15 min at room temperature with 1 μg/ml DAPI solution (Boehringer Mannheim-Roche, Mannheim, Germany), washed in distillated water, mounted under a coverslip in Mowiol (Calbiochem) and analyzed under a fluorescence microscope (BX51, Olympus, Rungis, France).\nCells were fixed with 2.5% glutaraldehyde in PBS buffer, included in agar, rinsed in Sorensen's buffer, post-fixed in osmium tetroxide 1% in Sorensen's buffer, deshydrated in ethanol and embedded in EPON resin. Ultrathin sections were cut and stained with uranyl acetate and lead citrate and examined using a JEOL1011 transmission electron microscope."}, "[6]": {"target": "T1, Noxa/Mcl-1 interaction (Homo sapiens, UniProt Q07820)", "T1 construct": "expressed in transfected cells; host or cells: HeLa cells", "T1 sequence (Q07820 whole entry)": "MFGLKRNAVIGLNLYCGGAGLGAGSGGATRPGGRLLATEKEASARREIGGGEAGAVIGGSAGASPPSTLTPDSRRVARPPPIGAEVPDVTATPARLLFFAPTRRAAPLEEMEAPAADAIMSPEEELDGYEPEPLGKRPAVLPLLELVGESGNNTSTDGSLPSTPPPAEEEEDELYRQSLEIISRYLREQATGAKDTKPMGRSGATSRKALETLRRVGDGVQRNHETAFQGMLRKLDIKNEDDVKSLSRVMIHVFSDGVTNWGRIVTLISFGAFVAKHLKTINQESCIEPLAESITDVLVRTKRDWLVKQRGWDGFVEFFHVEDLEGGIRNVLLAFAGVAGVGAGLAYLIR", "test": "BRET assay, Noxa/Mcl-1 interaction", "type": "cell-based", "conditions": "BRET in Hela cells, 10 μM, 16 hours", "method": "Hela cells were seeded on 6-well plates and transfected with 200 ng/well of plasmid pRLuc-Bax, pRLuc-Puma or pRLuc-Noxa coding for BRET donors and 1 µg/well of peYFP-Bcl-xL or peYFP-Mcl-1 coding for BRET acceptors (or with pCMV-Bcl-xL or pCMV-Mcl-1 for control). Twenty-four hours after transfection, cells were trypsinized and re-seeded into white 96 well plate flat bottom, incubated for another day, and then treated with drugs for 16 hours at 10 μM. Light emission at 485 nm and 530 nm was measured consecutively using the Mithras fluorescence-luminescence detector LB 940 (Berthold) after adding the luciferase substrate, coelenterazine H (Uptima) at a final concentration of 5 μM. BRET ratios were calculated as described [Terrillon et al. (2003) Mol Endocrinol 17, 677-691, Vo et al. (2012) Eur J Med Chem., 286-93]."}},
  "data": [
    {"compound": "Cc1cc(-c2ncc(-c3cccnc3)cc2/C=C/c2ccccc2)cnc1-c1cccnc1", "note": "[Pyridoclax, 5,6′-di(pyridin-3-yl)-5′-methyl-3-((E)-styryl)-2,3′-bipyridine]", "values": [
      {"measurement": "sub-G1 Peak on the DNA content histogram", "setting": "[1]; IGROV1-R10, 10 nM siXL1 48 h then 25 μM Pyridoclax 24 h", "result": "over 50%"},
      {"measurement": "time after beginning of exposure at which apoptosis was observed", "setting": "[1]; IGROV1-R10, siXL1 + Pyridoclax", "result": "2 to 4", "unit": "h"},
      {"measurement": "events in sub-G1 fraction", "setting": "[1]; IGROV1-R10, siXL1 + Pyridoclax, after 4 h exposure", "result": 37, "unit": "%"},
      {"measurement": "Sub-G1 (%)", "setting": "[1]; Molecule + Bcl-xL targeting siRNA", "result": 53.6, "unit": "%"},
      {"measurement": "fraction of annexin V positive cells", "setting": "[2]", "result": 60, "unit": "%"},
      {"measurement": "cellular activity (impedancemetry)", "setting": "[3]", "result": "drastically decreased"},
      {"measurement": "number of viable cells", "setting": "[4]", "result": "drastic decrease of the number of viable cells"},
      {"measurement": "nuclear morphology (DAPI staining and electron microscopy)", "setting": "[5]; IGROV1-R10, Pyridoclax associated to siXL1", "result": "nuclear condensations and fragmentations"},
      {"measurement": "Apoptotic nuclear features", "setting": "[5]; Molecule + Bcl-xL targeting siRNA, DAPI staining", "result": "+++"},
      {"measurement": "effect on Noxa/Mcl-1 interaction", "setting": "[6]", "result": "able to disrupt"}
    ]}
  ]
}
